Reference: US20240216369A1, “THE USE OF A SPLICING MODULATOR FOR A TREATMENT SLOWING PROGRESSION OF HUNTINGTON'S DISEASE” (Novartis AG, priority 2019, published 2024)

Tests used:
mutant HTT protein = test: Human PK/PD model scaled from BacHD mouse, simulations in adult patients; settings: Scaled PD parameters (cortex)
From the text: For the development of a PK/PD model in adults, the adult ACAT/PBPK model (Example 1c.1) was used to predict the concentration-time course of branaplam in plasma after oral branaplam administration. The PD parameters of the population PK/PD model in mouse were scaled for brain cortex and brain striatum from BacHD mouse to human according to following assumptions: • Mutant HTT baseline level in brain (R0) was kept equal to 1. • Drug's potency (IC50) was assumed to be the same in human as in BacHD mouse. The value was not corrected by the plasma protein binding since values in mouse and human were 0.741 and 0.8 in mouse and human, respectively. • Degradation rate or fractional turnover parameter of the mutant HTT protein synthesis (kout) was scaled from BacHD mouse to human considering an allometric scaling method based on the assumption that endogenous turnover of proteins, peptides and hormones can be scaled across different species and are related to energy turnover or metabolic rates (Gabrielsson J, Hjorth S, Quantitative Pharmacology: An Introduction to Integrative Pharmacokinetic-Pharmacodynamic Analysis. Swedish Pharmaceutical Press; 1 edition (May 7, 2012)). […]

mHTT = test: Mutant and total HTT multiplex HTRF assay in Q48 HTT human embryonic stem cell line: mHTT; format: cell-based; settings: Q48 HTT hESC, 48 hours
Procedure, shortened: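 Q48 HTT hESCs from HD donors were treated with compound for 48 h at 37 °C after 24 h adherence, then lysed. Lysates were read by multiplex HTRF with N-terminal donor, polyQ (MW1) and post-polyQ (MAB2166) antibodies for 4-6 h at RT. Donor/acceptor ratios give relative mHTT and tHTT; pIC50 reported.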

For `CC1(C)CC(Oc2ccc(-c3ccc(-c4cn[nH]c4)cc3O)nn2)CC(C)(C)N1` [Compound 18, 5-(1H-pyrazol-4-yl)-2-(6-((2,2,6,6-tetramethylpiperidin-4-yl)oxy)pyridazin-3-yl)phenol], the Imax (mutant HTT protein; first block) was 1, the Imax (mutant HTT protein; second block) was 1 and the “Rating (based on mHTT potency)” value (mHTT) was “**** (a pIC50 value between 7.0 and 7.5 is indicated by four stars (****))”. The “mHTT pIC50” value (mHTT) was 7.2795.
